Measurements taken from US7880002B2, “Substituted piperazinyl-pyrrolidine compounds useful as chemokine receptor antagonists” (Millennium Pharmaceuticals, Inc., priority 2004, dated 2011).

What follows are compounds tested against T1, CCR1 (Homo sapiens, UniProt P32246) (assay: CCR1 inhibition (THP-1 FLIPR assay / THP-1 whole cell radioligand binding assay; the patent does not say which gave the values)). Settings: threshold list, less than 100 nm; compounds of Table 1; read-out: inhibitory activity.
T1 construct: a monocytic derived cell line that endogenously expresses CCR1; host or cells: THP-1 cells
T1 sequence (P32246 1-355): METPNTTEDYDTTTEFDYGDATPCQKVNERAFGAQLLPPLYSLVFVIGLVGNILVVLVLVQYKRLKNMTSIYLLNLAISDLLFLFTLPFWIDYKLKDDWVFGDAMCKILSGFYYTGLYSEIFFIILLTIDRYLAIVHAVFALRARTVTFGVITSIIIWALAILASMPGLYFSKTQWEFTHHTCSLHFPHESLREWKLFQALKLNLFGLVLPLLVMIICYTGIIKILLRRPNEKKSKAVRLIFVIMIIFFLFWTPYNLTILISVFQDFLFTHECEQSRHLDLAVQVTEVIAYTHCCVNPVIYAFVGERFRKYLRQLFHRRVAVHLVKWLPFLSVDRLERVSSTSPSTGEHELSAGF
Assay type: cell-based
Protocol: The primary screening assay is a FLIPR® (Fluorometric Imaging Plate Reader, available from Molecular Devices Corporation, Sunnyvale, Calif.) assay using THP-1 cells (ATCC, Catalog No. TIB 202), a monocytic derived cell line that endogenously expresses CCR1.
The cells were resuspended at 1×10^6 cells/ml in dye loading media (growth media (RPMI+10% FBS (Fetal Bovine serum)+5.5×10^−5M 2-mercaptoethanol)+10 mM HEPES (N-2-hydroxyethylpiperazine-N′-2-ethane-sulfonic acid)+2.5 mM probenecid+fluo-3 (1:250)). The cells were incubated for 1 hour at 37° C. and then washed in FLIPR wash buffer (100 mL 10× HBSS (Hanks Buffered Saline Solution) (w/Ca++/Mg++)+20 mL 1M HEPES+1 g BSA+10 mL 250 mM probenecid+water (to make 1 L)) and plated at 50,000 cells/well in black/clear 384 well plates. The plates were transferred to FLIPR where the ability of different concentrations of compounds to inhibit RANTES induced calcium flux was assessed. Inhibition of the CCR1 response was reflected by a decrease of the fluorescence signal relative to the positive controls (RANTES alone).
THP-1 Whole Cell Radioligand Binding Assay
The cells were washed with PBS (phosphate buffered saline) and resuspended in binding buffer (10 mM HEPES pH 7.2, 1× HBSS (w/Ca^2+, Mg^2+) 0.5% BSA, 0.02% Na-azide) at 4×10^6 cells/ml (for 200, 000 cells/well). Cells were incubated with 0.1 to 0.2 nM [^125I]-labeled MIP-1α with or without unlabeled competitor (MIP-1α) or various concentrations of compounds for 60 minutes at room temperature. The assay was terminated by vacuum filtration through glass fiber filters (GF/B, Packard) which were presoaked in 0.3% polyethyleneimine. The filters were washed with wash buffer (10 mM HEPES, pH 7.2, 1 mM CaCl2, 5 mM MgCl2 0.5M NaCl), dried and the amount of bound radioactivity was determined by scintillation counting.

IC50	SMILES
< 100 nM	COc1ccc2nc(C(F)(F)F)nc(N3C[C@@H](O)[C@H](N4CCN(C(=O)c5ccc(Cl)cc5)CC4)C3)c2n1 (racemic) [Example 200, 4-[4-(4-chlorobenzoyl)piperazin-1-yl]-1-[6-methoxy-2-(trifluoromethyl)pyrido[3,2-d]pyrimidin-4-yl]pyrrolidin-3-ol]
< 100 nM	O=C(c1ccc(Cl)cc1)N1CCN([C@H]2CN(c3ccc4cccc(Cl)c4n3)C[C@@H]2O)CC1 (stereo in doubt) [Example 85, 4-[4-(4-chlorobenzoyl)piperazin-1-yl]-1-(8-chloroquinolin-2-yl)pyrrolidin-3-ol]
< 100 nM	O=C(c1ccc(Cl)cc1)N1CCN([C@H]2CN(c3cc(C(F)(F)F)nc4c(C(F)(F)F)cccc34)C[C@@H]2O)CC1 (stereo in doubt) [Example 26, 1-[2,8-bis(trifluoromethyl)quinolin-4-yl]-4-[4-(4-chlorobenzoyl)piperazin-1-yl]pyrrolidin-3-ol]
< 100 nM	O=C(c1ccc(Cl)cc1)N1CCN([C@H]2CN(c3nc(C(F)(F)F)nc4ccc(Cl)cc34)C[C@@H]2O)CC1 (stereo in doubt) [Example 173, 4-[4-(4-chlorobenzoyl)piperazin-1-yl]-1-[6-chloro-2-(trifluoromethyl)quinazolin-4-yl]pyrrolidin-3-ol]
< 100 nM	O=C(c1ccc(Cl)cc1)N1CCN([C@@H]2CN(c3nc(C(F)(F)F)nc4cc(C(F)(F)F)ccc34)C[C@H]2O)CC1 (stereo in doubt) [Example 111, 1-[2,7-bis(trifluoromethyl)quinazolin-4-yl]-4-[4-(4-chlorobenzoyl)piperazin-1-yl]pyrrolidin-3-ol]
< 100 nM	O=C(c1ccc(Cl)cc1)N1CCN([C@@H]2CN(c3ncnc4cc(Cl)ccc34)C[C@H]2O)CC1 (stereo in doubt) [Example 23, 4-[4-(4-chlorobenzoyl)piperazin-1-yl]-1-(7-chloroquinazolin-4-yl)pyrrolidin-3-ol]
< 100 nM	O=C(c1ccc(Cl)cc1)N1CCN([C@@H]2CN(c3ncnc4cc(F)c(F)cc34)C[C@H]2O)CC1 (stereo in doubt) [Example 102, 4-[4-(4-chlorobenzoyl)piperazin-1-yl]-1-(6,7-difluoroquinazolin-4-yl)pyrrolidin-3-ol]
< 100 nM	O=C(O)c1ccc2nc(C(F)(F)F)nc(N3C[C@@H](O)[C@H](N4CCN(C(=O)c5ccc(Cl)cc5)CC4)C3)c2c1 (stereo in doubt) [Example 181, 4-{3-[4-(4-chlorobenzoyl)piperazin-1-yl]-4-hydroxypyrrolidin-1-yl}-2-(trifluoromethyl)quinazoline-6-carboxylic acid]
< 100 nM	CC(C)(O)c1ccc2nc(C(F)(F)F)nc(N3C[C@@H](O)[C@H](N4CCN(C(=O)c5ccc(Cl)cc5)CC4)C3)c2c1 (stereo in doubt) [Example 199, 4-[4-(4-chlorobenzoyl)piperazin-1-yl]-1-[6-(1-hydroxy-1-methylethyl)-2-(trifluoromethyl)quinazolin-4-yl]pyrrolidin-3-ol]
< 100 nM	O[C@H]1CN(c2ncnc3cc(C(F)(F)F)ccc23)C[C@@H]1N1CCN(Cc2ccc(Cl)cc2)CC1 (stereo in doubt) [Example 97, 4-[4-(4-chlorobenzyl)piperazin-1-yl]-1-[7-(trifluoromethyl)quinazolin-4-yl]pyrrolidin-3-ol]
< 100 nM	O=C(c1ccc(Cl)cc1)N1CCN([C@@H]2CN(c3ncnc4ccc(Cl)cc34)C[C@H]2O)CC1 (stereo in doubt) [Example 81, 4-[4-(4-chlorobenzoyl)piperazin-1-yl]-1-(6-chloroquinazolin-4-yl)pyrrolidin-3-ol]
< 100 nM	O=C(c1ccc(Cl)cc1)N1CCN([C@H]2CN(c3ncnc4cc(Cl)ccc34)C[C@@H]2O)CC1 [Example 105, (3S,4S)-4-[4-(4-chlorobenzoyl)piperazin-1-yl]-1-(7-chloroquinazolin-4-yl)pyrrolidin-3-ol]

The remaining lines, values behind:

SMILES	IC50
O=C(c1ccc(Cl)cc1)N1CCN([C@H]2CN(c3nc(C(F)(F)F)nc4cc(Cl)ccc34)C[C@@H]2O)CC1 (stereo in doubt) [Example 201, 4-[4-(4-chlorobenzoyl)piperazin-1-yl]-1-[7-chloro-2-(trifluoromethyl)quinazolin-4-yl]pyrrolidin-3-ol]	< 100 nM
O=C(c1ccc(Cl)cc1)N1CCN([C@H]2CN(c3nc(C(F)(F)F)nc4cc(F)ccc34)C[C@@H]2O)CC1 (stereo in doubt) [Example 171, 4-[4-(4-chlorobenzoyl)piperazin-1-yl]-1-[7-fluoro-2-(trifluoromethyl)quinazolin-4-yl]pyrrolidin-3-ol]	< 100 nM
O=C(c1ccc(Cl)cc1)N1CCN([C@H]2CN(c3nc(C(F)(F)F)nc4c(F)cccc34)C[C@@H]2O)CC1 (stereo in doubt) [Example 178, 4-[4-(4-chlorobenzoyl)piperazin-1-yl]-1-[8-fluoro-2-(trifluoromethyl)quinazolin-4-yl]pyrrolidin-3-ol]	< 100 nM
O=C(c1ccc(Cl)cc1)N1CCN([C@@H]2CN(c3nccc4ccccc34)C[C@H]2O)CC1 [Example 21, 4-[4-(4-chlorobenzoyl)piperazin-1-yl]-1-isoquinolin-1-ylpyrrolidin-3-ol]	< 100 nM
O[C@@H]1CN(c2nc(C(F)(F)F)cc(C(F)(F)F)n2)C[C@H]1N1CCN(Cc2ccc(Cl)cc2)CC1 [Example 110, 1-[4,6-bis(trifluoromethyl)pyrimidin-2-yl]-4-[4-(4-chlorobenzyl)piperazin-1-yl]pyrrolidin3-ol]	< 100 nM
O=C(c1ccc(Cl)cc1)N1CCN([C@@H]2CN(c3ccnc4cc(Cl)ccc34)C[C@H]2O)CC1 (stereo in doubt) [Example 1, 4-[4-(4-chlorobenzoyl)piperazin-1-yl]-1-(7-chloroquinolin-4-yl)pyrrolidin-3-ol]	< 100 nM
Cc1cc(C(F)(F)F)nc(N2C[C@@H](O)[C@H](N3CCN(C(=O)c4ccc(Cl)cc4)CC3)C2)n1 (stereo in doubt) [Example 107, 4-[4-(4-chlorobenzoyl)piperazin-1-yl]-1-[4-methyl-6-(trifluoromethyl)pyrimidin-2-yl]pyrrolidin-3-ol]	< 100 nM
O=C(c1ccc(Cl)cc1)N1CCN([C@@H]2CN(c3ncnc4cc(C(F)(F)F)ccc34)C[C@H]2O)CC1 (stereo in doubt) [Example 93, 4-[4-(4-chlorobenzoyl)piperazin-1-yl]-1-[7-(trifluoromethyl)quinazolin-4-yl]pyrrolidin-3-ol]	< 100 nM
NC(=O)c1ccc2nc(C(F)(F)F)nc(N3C[C@@H](O)[C@H](N4CCN(C(=O)c5ccc(Cl)cc5)CC4)C3)c2c1 [Example 189, 4-{(3R,4R)-3-[4-(4-chlorobenzoyl)piperazin-1-yl]-4-hydroxypyrrolidin-1-yl}-2-(trifluoromethyl)quinazoline-6-carboxamide]	< 100 nM
COC(=O)Nc1ccc2nc(C(F)(F)F)nc(N3C[C@H](O)[C@@H](N4CCN(C(=O)c5ccc(Cl)cc5)CC4)C3)c2c1 (stereo in doubt) [Example 190, methyl [4-{3-[4-(4-chlorobenzoyl)piperazin-1-yl]-4-hydroxypyrrolidin-1-yl}-2-(trifluoromethyl)quinazolin-6-yl]carbamate]	< 100 nM
NC(=O)Nc1ccc2nc(C(F)(F)F)nc(N3C[C@H](O)[C@@H](N4CCN(C(=O)c5ccc(Cl)cc5)CC4)C3)c2c1 (stereo in doubt) [Example 194, N-[4-{3-[4-(4-chlorobenzoyl)piperazin-1-yl]-4-hydroxypyrrolidin-1-yl}-2-(trifluoromethyl)quinazolin-6-yl]urea]	< 100 nM
